For eight compounds, level, % of control and viability results are on record in ChEMBL document CHEMBL1150944, “New glycosides from ajuga decumbens” (J Nat Prod, 1998).

Where only a bound is given, the exact number is not on record here.

For series [1], the system named is Raji. The experiment in a line: Inhibition of TPA-induced EBV-early antigen activation in human Raji cells at 500 molar ratio after 48 hrs relative to TPA by indirect immunofluorescence technique; values are per cent of control. The conditions noted are these: human gammaherpesvirus 4.
The nature of series [2]: Cytotoxicity against human Raji cells assessed as cell viability at 500 molar ratio after 48 hrs. Type of series: cell-based. The conditions noted are these: read-out: Activity.
Series [3] relates to Raji. Nature of the series: Inhibition of TPA-induced EBV-early antigen activation in human Raji cells at 10 molar ratio after 48 hrs relative to TPA by indirect immunofluorescence technique; values are per cent of control. The conditions noted are these: human gammaherpesvirus 4.
A short description of series [4]: Cytotoxicity against human Raji cells assessed as cell viability at 10 molar ratio after 48 hrs. The conditions noted are these: read-out: Activity. Type of series: cell-based.
Series [5] concerns Raji. Nature of the series: Inhibition of TPA-induced EBV-early antigen activation in human Raji cells at 100 molar ratio after 48 hrs relative to TPA by indirect immunofluorescence technique; values are per cent of control. The conditions noted are these: human gammaherpesvirus 4.
Series [6] is described as follows: Cytotoxicity against human Raji cells assessed as cell viability at 100 molar ratio after 48 hrs. The series is classed as cell-based. The conditions noted are these: read-out: Activity.
Series [7] concerns Raji. The experiment in a line: Inhibition of TPA-induced EBV-early antigen activation in human Raji cells at 1000 molar ratio after 48 hrs relative to TPA by indirect immunofluorescence technique; values are per cent of control. The conditions noted are these: human gammaherpesvirus 4.
A short description of series [8]: Cytotoxicity against human Raji cells assessed as cell viability at 1000 molar ratio after 48 hrs. The conditions noted are these: read-out: Activity. The series is classed as cell-based.

Take `CC(=O)O[C@@]1(C)C[C@@H](O)[C@]2(O)C=CO[C@@H](O[C@@H]3O[C@H](CO)[C@@H](O)[C@H](O)[C@H]3O)[C@@H]21`: the level, % of control was determined as 19.9% with Raji [1], 89.5% in the series on Raji [3], 62.6% with Raji [5] and 0% in the series with Raji [7]. For the same compound, the viability at 48 h, 500 molar ratio in series [2] is above 80%. For the same compound, in series [4], the viability at 48 h, 10 molar ratio was above 80%. For the same compound, the viability at 48 h, 100 molar ratio in series [6] is above 80%. In series [8], the viability at 48 h, 1000 molar ratio worked out at 60%.

In the case of `C[C@]1(O)C[C@@H](O)[C@]2(O)C=CO[C@@H](O[C@H]3O[C@H](CO)[C@@H](O)[C@H](O)[C@H]3O)[C@@H]21`, the level, % of control in the series with Raji [1] stood at 52.7%; in the series with Raji [3] it was 100%; in the series on Raji [5], 80.1%; in the series on Raji [7] it was 0%.

With `CC(CO)c1cc2c(c(O)c1O[C@@H]1O[C@H](CO)[C@@H](O)[C@H](O)[C@H]1O)[C@@]1(C)CCC[C@](C)(CO[C@@H]3O[C@H](CO)[C@@H](O)[C@H](O)[C@H]3O)[C@@H]1CC2` (stereo partly specified) [AJUGASIDE A], the level, % of control in the series on Raji [1] is 24.9%; in the series with Raji [3], 91%; with Raji [5] it was 68.3%; in the series with Raji [7], 0%. Further, in series [2], the viability at 48 h, 500 molar ratio is above 80%. The viability at 48 h, 10 molar ratio in series [4] was above 80%. In addition, the viability at 48 h, 100 molar ratio in series [6] is above 80%. In addition, the viability at 48 h, 1000 molar ratio in series [8] was found to be 60%.

Take `COc1ccc(CCO[C@@H]2O[C@H](CO)[C@@H](O)[C@H](O[C@@H]3O[C@@H](C)[C@H](O)[C@@H](O)[C@H]3O)[C@H]2O)cc1O` [DARENDOSIDE A]: the level, % of control was 53.8% with Raji [1], 100% in the series with Raji [3], 81.6% with Raji [5] and 22.6% in the series on Raji [7]. In addition, in series [2], the viability at 48 h, 500 molar ratio was above 80%. Further, the viability at 48 h, 10 molar ratio in series [4] was above 80%. Also, in series [6], the viability at 48 h, 100 molar ratio was above 80%. Also, the viability at 48 h, 1000 molar ratio in series [8] turned out to be 70%.

Take `COc1ccc(CCO[C@@H]2O[C@H](CO)[C@@H](OC(=O)/C=C/c3ccc(O)c(OC)c3)[C@H](O[C@@H]3O[C@@H](C)[C@H](O)[C@@H](O)[C@H]3O[C@@H]3O[C@H](CO)[C@H](O)[C@H](O)[C@H]3O)[C@H]2O)cc1O` [GALACTOSYLMARTYNOSIDE]: the level, % of control came to 31.8% in the series with Raji [1], 98.5% in the series on Raji [3], 76% in the series on Raji [5] and 0% in the series on Raji [7]. The viability at 48 h, 500 molar ratio in series [2] is above 80%. The viability at 48 h, 10 molar ratio in series [4] is above 80%. Besides, in series [6], the viability at 48 h, 100 molar ratio was above 80%. The viability at 48 h, 1000 molar ratio in series [8] came out at 60%.

`C[C@]1(O)C[C@@H](O)[C@]2(O)C=CO[C@@H](O[C@@H]3O[C@H](CO)[C@@H](O)[C@H](O)[C@H]3O)[C@@H]21` [HARPAGIDE]: in series [2], the viability at 48 h, 500 molar ratio is above 80%. Further, the viability at 48 h, 10 molar ratio in series [4] is above 80%. The viability at 48 h, 100 molar ratio in series [6] is above 80%. In series [8], the viability at 48 h, 1000 molar ratio came to 60%.

On to `COc1ccc(CCO[C@@H]2O[C@H](CO)[C@@H](OC(=O)/C=C/c3ccc(O)c(OC)c3)[C@H](O[C@@H]3O[C@@H](C)[C@H](O)[C@@H](O)[C@H]3O)[C@H]2O)cc1O` [MARTYNOSIDE A], for which the level, % of control with Raji [1] was 31.7%; in the series with Raji [3], 89.4%; in the series with Raji [5] it was 66.4%; with Raji [7] it was 0%. Besides, in series [2], the viability at 48 h, 500 molar ratio was above 80%. Also, the viability at 48 h, 10 molar ratio in series [4] is above 80%. Further, the viability at 48 h, 100 molar ratio in series [6] is above 80%. In addition, the viability at 48 h, 1000 molar ratio in series [8] was 60%.

Turning to `CC(=O)O[C@@]1(C)CC[C@]2(O)C=CO[C@@H](O[C@@H]3O[C@H](CO)[C@@H](O)[C@H](O)[C@H]3O)[C@@H]21` [REPTOSIDE], the level, % of control was 22.4% with Raji [1], 90.3% with Raji [3], 71.3% with Raji [5] and 0% with Raji [7]. Besides, in series [2], the viability at 48 h, 500 molar ratio is above 80%. Besides, in series [4], the viability at 48 h, 10 molar ratio was above 80%. In series [6], the viability at 48 h, 100 molar ratio is above 80%. The viability at 48 h, 1000 molar ratio in series [8] is 60%.
